Measurements taken from article PMC10322702 (Nature Chemistry, 2023).
“And” between values parts separate entries of the source, which are not always exact repeats. Identical values can stand only once. “Also recorded” adds a separate entry of the source. Numbered stars: 1 amine (or outer) side, 2 acyl side, 3 side chain; on linkers, the order of the positions; unused ones are H or OH. Bridge positions count the residues as written; N and C are the ends. Square brackets hold non-standard residues; d marks the D form. Peptide text beside a SMILES is read from it. Acbc(cis-1,3) = O=C([C@H]1C[C@@H](N[*:1])C1)[*:2]

What was measured:
[1] = target: T1, SARS-CoV-2 M^pro (Severe acute respiratory syndrome coronavirus 2, UniProt P0DTD1); assay: biochemical; format: binding; settings: read-out: ka (kinetic association)
[2] = target: T1, SARS-CoV-2 M^pro; assay: biochemical; format: biochemical
[3] = Cytotoxicity of GM4 and related macrocycles; format: cell-based; settings: at concentrations as high as 100 µM
[4] = Antiviral activity in cells of GM4 and related macrocycles; format: cell-based
[5] = target: M^pro (Severe acute respiratory syndrome coronavirus 2, UniProt P0DTD1); format: biochemical, SARS-CoV-2
[6] = Serum stability assay in human serum (LC/MS)
[7] = read-out: EC50 (antiviral activity in cells); cited from earlier work
[8] = tested on: Vero E6 cells; design: method as in PMID 33786375; settings: read-out: CC50 (half-maximal cytotoxic concentration); cited from earlier work
[9] = human serum (Cosmo Bio, 12181201); settings: 37 °C, up to 100 h
[10] = tested on: recombinant SARS-CoV-2 M^pro; assay: M^pro 6 mg ml^–1 in 20 mM HEPES (pH 7.5) and 50 mM NaCl, co-crystallization with GM4; settings: SARS-CoV-2, room temperature, crystals grown at 20 °C, up to one week

In the case of `CC(C)C[C@@H]1NC(=O)[C@H](CC(N)=O)NC(=O)[C@H](CC(C)C)NC(=O)[C@H]2C[C@H](C2)NC(=O)[C@H](Cc2c[nH]cn2)NC(=O)[C@H](Cc2ccccc2)NC(=O)[C@@H](Cc2ccc(O)cc2)NC(=O)CSC[C@H](C(N)=O)NC(=O)CNC(=O)[C@@H]2CCCN2C(=O)[C@H](CCCNC(=N)N)NC(=O)[C@H](Cc2ccc(O)cc2)NC(=O)CNC1=O` [GM4] ({CH2CO}-[dY]FH[Acbc(cis-1,3)]LNLGYRPG[dC]-NH2; thioether N-13), the kon [1] is reported as 100000 M⁻¹ s⁻¹, the IC50 [2] is reported as 50 nM and the inhibition at 0.102 µM [2] is reported as 84.7%. The inhibition at 0.309 µM [2] was 97.9%, the inhibition at 0.933 µM [2] was 100% and the inhibition at 2.75 µM [2] was 100%. For the same compound, the inhibition at 8.32 µM [2] was 100%, the cytotoxicity [3] was “no cytotoxicity” and the “antiviral activity in cells” value [4] was “do not manifest obvious antiviral activity”. For the same compound, the “hydrolysis of the peptide by M^pro” value [5] was “lack of efficient GM4 hydrolysis”, the “Remaining peptide (%)” value ([6]; 37 °C, incubation time 1 h, relative to 0 h = 100%, technical replicates, 60 min) was 104.39% and 106.19% and the “Remaining peptide (%)” value ([6]; 37 °C, incubation time 4 h, relative to 0 h = 100%, technical replicates, 240 min) was 95.61% and 97.60%. The “Remaining peptide (%)” value ([6]; 37 °C, incubation time 8 h, relative to 0 h = 100%, technical replicates, 480 min) was 99.57% and 100.45%, the “Remaining peptide (%)” value ([6]; 37 °C, incubation time 24 h, relative to 0 h = 100%, technical replicates, 1440 min) was 95.67% and 101.18% and the “Remaining peptide (%)” value ([6]; 37 °C, incubation time 50 h, relative to 0 h = 100%, technical replicates, 3000 min) was 76.05% and 78.63%. The “Remaining peptide (%)” value ([6]; 37 °C, incubation time 100 h, relative to 0 h = 100%, technical replicates, 6000 min) was 55.56% and 56.89%, the “fold increase in serum (proteolytic) stability compared to alanine-substituted variant” value ([6]; GM4 vs GM4γ^14A) was 12 fold and the half-life at 10 μM ([6]; human) was 5.25 days. The remaining at 1 h, 10 μM ([6]; human, Remaining peptide (%), 37 °C, incubation time 1 h, relative to 0 h = 100%, technical replicates) was 104%, the remaining at 4 h, 10 μM ([6]; human, Remaining peptide (%), 37 °C, incubation time 4 h, relative to 0 h = 100%, technical replicates) was 95.7% and the remaining at 8 h, 10 μM ([6]; human, Remaining peptide (%), 37 °C, incubation time 8 h, relative to 0 h = 100%, technical replicates) was 97.7%. It also gave a remaining at 24 h, 10 μM ([6]; human, Remaining peptide (%), 37 °C, incubation time 24 h, relative to 0 h = 100%, technical replicates) of 82.2%, a remaining at 50 h, 10 μM ([6]; human, Remaining peptide (%), 37 °C, incubation time 50 h, relative to 0 h = 100%, technical replicates) of 67.9% and a remaining at 100 h, 10 μM ([6]; human, Remaining peptide (%), 37 °C, incubation time 100 h, relative to 0 h = 100%, technical replicates) of 55.7%.
In the case of `Cn1cnc(Cn2c(=O)[nH]/c(=N\c3cc4cn(C)nc4cc3Cl)n(Cc3cc(F)c(F)cc3F)c2=O)n1` [S-217622], the EC50 [7] is listed as 370 nM.
For `O=c1[nH]cc(-c2cc(-c3cc(Cl)c(F)c(OCc4ccccc4Cl)c3)c(=O)n(-c3cccnc3)c2)c(=O)[nH]1` [compound 23], the CC50 [8] is given as 1150 nM.
In the case of “^AcyFHγ^1LNLGYRPGc-NH2 ({CH2CO}-[dY]FH[Acbc(cis-1,3)]LNLGYRPG[dC]-NH2; thioether N-13)”, the cleaved bond [9] is reported as “L5-N6, 24 h; also recorded: N6-L7, 24 h; also recorded: R10-P11, 24 h; also recorded: P11-G12, 24 h; also recorded: G12-c13, 24 h” and the not cleaved [10] is reported as “complete intact peptide in the active site pocket”.
